Values of other authors as cited in patent US20250311762A1, “FORMULATION AND METHOD FOR AN EXERCISE SUPPORTING NUTRITIONAL SUPPLEMENT” (BullFit, LLC., priority 2024, published 2025).

Experiments:
[1] = test system: anaerobic strength performance; settings: athletes supplementing with Betaine
cognitive function = settings: 2 g per day for 5 days during a demanding military combat training course

| SMILES | squat, bench press, and other activities [1] | cognitive function relative to placebo (cognitive function) |
| --- | --- | --- |
| C[N+](C)(C)CC(=O)[O-] [Betaine, trimethylglycine] | increased their squat, bench press, and other activities |  |
| N[C@@H](Cc1ccc(O)cc1)C(=O)O [L-tyrosine, L-Tyrosine] |  | improved various aspects of cognitive function relative to placebo |
